Patent publication US11021721B2, “Genetically engineered Pseudomonas strains capable of metabolizing ethylene glycol and its metabolic intermediates” (Alliance for Sustainable Energy, LLC, priority 2017, dated 2021)
Where “and” joins values, the source holds several entries; their conditions need not be identical. Equal entries are not always repeated.

Columns and labels:
P. putida KT2440 [1] = experiment: C-limited chemostat cultivation on acetate with co-feed of ethylene glycol or glyoxylate; assay type: cell-based, Pseudomonas putida KT2440; conditions: for increase of biomass yield on acetate: 30 mM co-feed with 30 mM acetate, compared to control with only acetate; for reducing equivalents generated through co-metabolism: co-feed with acetate, assuming all glyoxylate is metabolized through the glyoxylate shunt
Procedure: FIG. 14 depicts co-feeding of P. putida KT2440 in C-limited chemostat cultivations on mineral medium with 30 mM acetate supplemented with 30 mM ethylene glycol (black), 30 mM glyoxylate (green), or no co-feed (grey). FIG. 14A depicts a comparison of biomass (OD600) at steady state. FIG. 14B depicts extracellular metabolites at steady state. […] FIG. 14C depicts flux analysis of redox equivalent-yielding metabolism of ethylene glycol (upper value) or glyoxylate (lower value) in mM gCDW^−1 h^−1. Cells were grown at a dilution rate of 0.2. Error bars indicate the deviation from the mean (n=2).
To investigate the applicability of ethylene glycol as a co-substrate, P. putida KT2440 was cultured in carbon-limited chemostat cultivations with acetate as carbon source, and either ethylene glycol or glyoxylate as an energy source. Acetate was chosen because it induces the glyoxylate shunt enzymes.
Energy and redox equivalent homeostasis is essential for efficient growth of a bacterial cell.

P. putida KT2440 [2] = experiment: Competitive inhibition assay, glycolaldehyde and glyoxal full-factorial growth test (Bioscreen C); assay type: cell-based, Pseudomonas putida KT2440
Procedure: FIG. 13 depicts synergistic inhibitory effect of glycolaldehyde and glyoxal. Growth assays were conducted in 100 well plates in the Bioscreen C MBR analyzer. Individual wells of the plate were filled with 200 μL of M9 medium-containing 20 mM glucose and the respective concentration of glycolaldehyde and glyoxal according to a 3-level full-factorial design (Table 3), growth rates expressed as means±SEM (n=3). Bars labeled with different letters indicate statistical significance of different runs (p<0.05; one-way ANOVA followed by Tukey's post hoc honest significance difference test).
Toxicity tests and competitive inhibition assays were performed using Bioscreen C MBR analyzers (Growth Curves US, Piscataway, N.J.). For toxicity tests, overnight cultures of P. putida KT2440 were grown in M9 medium containing 20 mM glucose starting at an OD600 of 0.05-0.1 at 30° C. with shaking at 225 rpm in baffled shake flasks until the OD600 reached about 1.0-1.5. Cells were subsequently concentrated by centrifugation and inoculated into wells of Bioscreen C microplates at an initial OD600=0.05. Each well contained a total volume of […] M9 medium, 20 mM glucose, and inhibitors at various concentrations. Incubations were performed at 30° C. with maximum shaking. Absorbance readings were taken every 15 min. For competitive inhibition assays, individual wells of the plate were filled with 200 μL of M9 medium containing 20 mM glucose and a respective concentration of glycolaldehyde and glyoxal according to full-factorial test run results of which are presented in Table 3 and depicted in graphical form in FIG. 13. Initial OD600 was set at 0.1 by using an overnight culture of wild type P. putida KT2440. Samples were incubated as described above. Operation of the Bioscreen C MBR and collection of turbidity measurements (OD420-580) were computer automated with EZ Experiment.
The toxicity effects of ethylene glycol, glyoxylate, glycolaldehyde, glyoxal and oxalate on P. putida KT2440 were examined by monitoring growth in the Bioscreen C instrument (a microplate reader which monitors turbidity over time) in the presence of M9 minimal medium containing 20 mM glucose and the inhibitor, see FIG. 20. The average OD of at least 5 wells was plotted in FIG. 9. […] Glyoxal, an oxidation product of glycolaldehyde, is also very inhibitory to P. putida KT2440 growth at a 5 mM concentration where a long lag phase is observed. At 7.5 mM, glyoxal is lethal to the cells. Therefore, glycolaldehyde and glyoxal are intermediate metabolites which result in ethylene glycol toxicity on P. putida KT2440. Glycolaldehyde exerts combinational inhibitory effect with other compounds, such as 5-HMF, furfural, and methylglyoxal. The combinational inhibitory effect of glycolaldehyde and glyoxal was determined by running three level full-factorial growth experiments, see FIG. 13 and Table 3.

P. putida KT2440 [3] = experiment: Toxicity tests in Bioscreen C: growth in M9 minimal medium with 20 mM glucose and inhibitor; assay type: cell-based, Pseudomonas putida KT2440; conditions: 20 mM glucose
Procedure: Toxicity tests and competitive inhibition assays were performed using Bioscreen C MBR analyzers (Growth Curves US, Piscataway, N.J.). For toxicity tests, overnight cultures of P. putida KT2440 were grown in M9 medium containing 20 mM glucose starting at an OD600 of 0.05-0.1 at 30° C. with shaking at 225 rpm in baffled shake flasks until the OD600 reached about 1.0-1.5. Cells were subsequently concentrated by centrifugation and inoculated into wells of Bioscreen C microplates at an initial OD600=0.05. Each well contained a total volume of 300 M9 medium, 20 mM glucose, and inhibitors at various concentrations. Incubations were performed at 30° C. with maximum shaking. Absorbance readings were taken every 15 min. […] Initial OD600 was set at 0.1 by using an overnight culture of wild type P. putida KT2440. Samples were incubated as described above. Operation of the Bioscreen C MBR and collection of turbidity measurements (OD420-580) were computer automated with EZ Experiment.
Growth curves were obtained from Bioscreen C analyzers (Growth Curves US, Piscataway, N.J.). Overnight cultures of P. putida KT2440 were grown in M9 medium containing 20 mM glucose starting at an OD600 of 0.05-0.1, 30° C., 225 rpm (baffled shake flask) until the OD600 reached ˜1.0-1.5. Cells were concentrated by centrifugation and inoculated into wells of Bioscreen C microplates containing various inhibitors and concentrations in the presence of 20 mM glucose at and additional OD600=0.05 in a total volume of 300 μL. Incubations were performed at 30° C. and absorbance readings were taken every 15 min. Operation of the Bioscreen C and collection of turbidity measurements (OD420-580) were computer automated with EZ Experiment. Data was collected and exported to Microsoft Excel spreadsheets for analysis.

P. putida KT2440 [4] = conditions: on glucose, co-feed of formate, similar conditions; cited from earlier work
[5] = target: tartronate semialdehyde reductase (GlxR); conditions: cited from earlier work

## OCCO [Ethylene glycol, ethylene glycol]
P. putida KT2440 [1]
  increase of biomass yield on acetate: 29.6±1.1%
  reducing equivalents generated through co-metabolism: 27.3±2.6 mmol (g CDW)^−1 h^−1

## O=CCO [Glycolaldehyde, glycolaldehyde]
P. putida KT2440 [2]; in the presence of 2 mM glycolaldehyde
  Growth Rate: 0.22 h⁻¹ and 0.291 ± 0.001 h⁻¹
P. putida KT2440 [2]; run 13: glycolaldehyde 1.0 mM, glyoxal 0 mM
  Growth Rate: 0.281 h⁻¹
P. putida KT2440 [2]; run 14: glycolaldehyde 1.5 mM, glyoxal 0 mM
  Growth Rate: 0.221 h⁻¹
P. putida KT2440 [2]; run 15: glycolaldehyde 2 mM, glyoxal 0 mM
  Growth Rate: 0.218 h⁻¹
P. putida KT2440 [3]
  concentration that completely inhibited growth: 4000 µM
  concentration that inhibits growth: 3000 µM

## O=CC=O [Glyoxal, glyoxal]
P. putida KT2440 [2]; in the presence of 2 mM glyoxal
  Growth Rate: 0.25 h⁻¹ and 0.297 ± 0.001 h⁻¹
P. putida KT2440 [2]; run 1: glycolaldehyde 0 mM, glyoxal 1.0 mM
  Growth Rate: 0.297 h⁻¹
P. putida KT2440 [2]; run 2: glycolaldehyde 0 mM, glyoxal 1.5 mM
  Growth Rate: 0.280 h⁻¹
P. putida KT2440 [2]; run 3: glycolaldehyde 0 mM, glyoxal 2.0 mM
  Growth Rate: 0.246 h⁻¹
P. putida KT2440 [3]
  concentration inhibitory to growth with long lag phase: 5000 µM
  lethal concentration: 7.5 mM

## O=CO [formate]
P. putida KT2440 [4]
  reducing equivalents at maximal achievable biomass yield: 7.6±0.9 mmol (g CDW)^−1 h^−1

## O=C(O)CO [glycolate]
[5]; inhibition of GlxR
  Ki: 3000 µM

## O=CC(=O)O [glyoxylate]
P. putida KT2440 [1]
  increase of biomass yield on acetate: 22.2±8.2%
  reducing equivalents generated through co-metabolism: 14.4±0.5 mmol (g CDW)^−1 h^−1

## O=C(O)C(=O)CO [hydroxypyruvate]
[5]
  maximal velocity as GlxR substrate, fold lower than tartronate semialdehyde: 10 fold

## O=C([O-])C(=O)[O-].[Na+].[Na+] [sodium oxalate]
P. putida KT2440 [3]
  concentration not significantly inhibitory to growth: up to 50 mM
